Assay results: patent US20240024409A1, “N-f-MLF DERIVATIVES THAT INHIBIT FORMYL PEPTIDE RECEPTORS FOR THE TREATMENT OF DISEASE” (University of South Alabama, priority 2022, published 2024)

Key:
[1] = tested on: Primary STAT3^mut bone marrow-derived mast cells (BMMC); assay: BMMC degranulation (LAMP-1 on the plasma membrane by flow cytometry); type: cell-based, mice; conditions: DNP-specific IgE then DNP; peptide added prior to DNP; varying concentrations
Method: Primary bone marrow-derived mast cells (BMMC) were cultured from STAT3^mut mice in RPMI-1640 Medium (Thermo Fisher Scientific) containing 10% fetal bovine serum (FBS), interleukin-3 (IL-3) and stem cell factor (SCF). To induce degranulation, BMMC were incubated with dinitrophenyl (DNP)-specific IgE followed by addition of DNP to crosslink IgE. To test effects of fMLFF and fMLYF, different concentrations were administered prior to the addition of DNP. Degranulation was measured by the amount of lysosomal-associated membrane protein 1 (LAMP-1) on the plasma membrane by flow cytometry.
Primary STAT3^mut BMMC were treated with varying concentrations of fMLFF and fMLYF (FIG. 3A and FIG. 3B). Data shown in FIG. 3B were summarized from 3 individual experiments; bars indicate means+SEM; **p<0.001; ****p<0.00001, 2-way ANOVA with Tukey's multiple comparison. Assays were performed independently with fMLFF and fMLYF; data shown are cumulative for experiments using fMLFF and fMLYF individually.

circulating IgE levels = assay: IgE production in vivo (serum IgE by ELISA); design: species or system STAT3^mut mice; conditions: 2.5 mg/kg once per week for 3 weeks
Method: Groups (n=4-6/group) were treated with fMLYF (2.5 mg/kg) or vehicle once per week for 3 weeks. Serum was collected to measure effects of peptide treatment on circulating IgE levels via ELISA (FIG. 1 and FIG. 5).

## fMLFF
[1]
  mast cell degranulation in vitro: attenuated
Circulating IgE levels
  IgE production in vivo: attenuated
